{"source": "patent US20240245806A1", "about": "“TREATMENT OF NEURODEGENERATIVE DISEASE USING CSA- AND INDY-TYPE COMPOUNDS” (BROWN UNIVERSITY, priority 2021, published 2024)", "key": {"zebrafish larvae [1]": {"test_system": "zebrafish larvae", "assay": "Behavioral screen of 190 FDA-approved drugs in 5-day-old zebrafish larvae (activity, optomotor and acoustic responses)", "type": "in vivo, Danio rerio", "conditions": "10 μM, 5 dpf larvae, vs DMSO", "from_the_text": "Zebrafish. The research project has been conducted in accordance with local and federal guidelines for ethical and humane use of animals and has been reviewed and approved by the Brown University Institutional Animal Care and Use Committee. Zebrafish (Danio rerio) embryos were collected and grown to larval stages as previously described. Pelkowski et al., Behav Brain Res 223, 135-144 (2011). Adult wild-type zebrafish are maintained at Brown University as a genetically-diverse outbred strain in a mixed male and female population. […] Embryos and larvae were kept on a 12 hour light/12 hour dark cycle and were randomly assigned to different experimental groups prior to experimental manipulation. The sex of embryos and larvae cannot be determined at such early stages because zebrafish use elusive polygenic factors for sex determination, and both males and females have juvenile ovaries between 2.5 and 4 weeks of development. Zebrafish larvae were imaged at 5 dpf when the larvae display a range of locomotor behaviors and consume nutrients available in the yolk sac. Clift et al., Zebrafish 11, 455-461 (2014). Larvae are approximately 4 mm long at the 5 dpf stage. Pharmacological treatments. Zebrafish larvae were treated with 190 FDA-approved compounds using a Tocris small-molecule library (Tocris Bioscience, Cat. No. 7200). […] Larvae were first treated in a Petri dish for 2 hours, transferred with the treatment solution to white 96-well ProxiPlates (PerkinElmer, 6006290) for 1 hour, and then imaged in the treatment solution for 3 hours. Imaging system. Zebrafish larvae were imaged in an imaging system that holds four 96-well plates for automated analysis of behavior in a 384-well format (FIG. 1). Briefly, the imaging system is housed in a 28.5° C. temperature-controlled cabinet where larvae in white 96-well ProxiPlates are placed onto a glass stage. Above the stage, a high-resolution camera (18-megapixel Canon EOS Rebel T6 with an EF-S 55-250 mm f/4.0-5.6 IS zoom lens) captures an image of the larvae in the four 96-well plates every 6 seconds. The camera is connected to a continuous power supply (Canon ACK-E10 AC Adapter) and controlled by a laptop computer using Canon's Remote Capture software (EOS Utility, version 3), which is included with the camera. Two small speakers (OfficeTec USB Computer Speakers Compact 2.0 System) were attached speaker-side down to the glass stage. Speakers were connected by USB to the laptop computer and set to maximum volume. […] Behavioral assay. Visual and acoustic stimuli are controlled by an automated 3-hour PowerPoint presentation that is shown to the larvae. […] Larvae were not exposed to visual stimuli and acoustic stimuli at the same time. The visual stimuli consisted of a series of moving lines that were red, green or blue. Prior studies have shown that zebrafish larvae will swim in the same direction as moving lines, a behavior that is called an optomotor response or OMR (19, 28). Our previously-developed assays for visually-guided behaviors indicate 5 dpf larvae consistently respond to 1 mm thick lines set 7 mm apart that move 7 mm per 8 seconds downwards or upwards, alternating direction in 10-minute periods (19). Additionally, the presentation included red lines that moved at a faster speed of 7 mm per 0.5 seconds (16× faster). […]"}, "zebrafish larvae [2]": {"test_system": "zebrafish larvae", "assay": "Acute exposure of 5 dpf zebrafish larvae to modulators of calcineurin signaling, automated analysis of behavior", "type": "in vivo, Danio rerio", "method": "Zebrafish larvae were treated at 5 dpf with various modulators of calcineurin signaling, starting 3 hours before imaging. The larvae were then imaged for a total of 3 hours using a behavioral assay with various visual and acoustic stimuli (FIG. 6). The behavioral assay started with a 1-hour period without stimuli, followed by 80 minutes with visual stimuli, 10 minutes without visual or acoustic stimuli, and 30 minutes with acoustic stimuli. Values of activity (% move) and position (% up) were averaged in individual larvae during 10-minute periods, for a total of 18 periods. These values were subsequently averaged between larvae in the same treatment group. We examined a total of 10 treatment groups. For clarity, only 3 treatment groups were graphed (FIG. 6), but all 10 treatment groups were analyzed in detail as shown in subsequent figures. […] The assay provides quantitative information on activity, visually-guided behaviors and acoustic startle responses.\nTo determine if larval zebrafish behavior is affected by modulation of calcineurin signaling, we imaged 5 day-old larvae in the following 10 treatment groups: 10 μM cyclosporine A (CsA), 1 μM tacrolimus (FK506), 5 or 10 μM proINDY, a combination of CsA+5 or 10 μM proINDY, or a combination of FK506+5 or 10 μM proINDY, DMSO as a vehicle control, and 1 μM rapamycin as a control for target specificity. Rapamycin and FK506 are both macrolide immunosuppressants with similar structures, however, rapamycin affects Target of Rapamycin (TOR) signaling instead of calcineurin signaling. Vellanki et al., Front Mol Biosci 7, 588913 (2020). The concentrations of CsA, FK506 and rapamycin were selected based on prior studies in zebrafish embryos and larvae. Clift et al., Behav Brain Res 282, 117-124 (2015). The two concentrations of proINDY, a membrane-permeable form of INDY (inhibitor of DYRK), were selected based on studies in cell lines and Xenopus embryos. Ogawa et al., Nat Commun 1, 86 (2010).\nThe research project has been conducted in accordance with local and federal guidelines for ethical and humane use of animals and has been reviewed and approved by the Brown University Institutional Animal Care and Use Committee. Zebrafish (Danio rerio) embryos were collected and grown to larval stages as previously described. Thorn et al., Sci Rep 9, 13989 (2019). Adult wild-type zebrafish are maintained at Brown University as a genetically-diverse outbred strain in a mixed male and female population. Zebrafish embryos from 0-3 days post-fertilization (dpf) and zebrafish larvae from 3-5 dpf were maintained at 28.5° C. in 2 L culture trays with egg water, containing 60 mg/L sea salt (Instant Ocean) and 0.25 mg/L methylene blue in deionized water. Embryos and larvae were kept on a 12 hour light/12 hour dark cycle and were randomly assigned to different experimental groups prior to experimental manipulation. The sex of embryos and larvae cannot be determined at such early stages because zebrafish use elusive polygenic factors for sex determination, and both males and females have juvenile ovaries between 2.5 and 4 weeks of development. Zebrafish larvae were imaged at 5 dpf when the larvae display a range of locomotor behaviors and consume nutrients available in the yolk sac. Larvae are approximately 4 mm long at the 5 dpf stage.\nCyclosporine (cyclosporin A, Enzo Life Sciences), FK506 (tacrolimus, Enzo Life Sciences), rapamycin (Santa Cruz Biotechnology) and proINDY (Tocris Bioscience) were diluted in egg water from 1000× stocks dissolved in dimethyl sulfoxide (DMSO). DMSO (1 μl/ml DMSO) was added to the single treatments and the corresponding DMSO concentration was used as a vehicle control for all solutions. Larvae were exposed at 5 dpf to treatment solutions or DMSO for a total of 6 hours. Larvae were first treated in a Petri dish for 2 hours, transferred with the treatment solution to white 96-well ProxiPlates (PerkinElmer, 6006290) for 1 hour, and then imaged in the treatment solution for 3 hours. […]"}, "[3]": {"test_system": "zebrafish embryos and larvae", "assay": "Developmental exposure (2-3, 3-4 or 4-5 dpf) of zebrafish to modulators of calcineurin signaling, behavior imaged at 5 dpf", "type": "in vivo", "method": "Zebrafish. Adult wild type zebrafish (Danio rerio) are maintained at Brown University as a genetically-diverse outbred strain in a mixed male and female population. Zebrafish embryos were collected and grown to larval stages as described previously. Thorn et al., Sci Rep 9, 13989 (2019). Embryos from 0-3 days post-fertilization (dpf) and larvae from 3-5 dpf were kept on a 12 hour light/12 hour dark cycle at 28.5° C. in 2 L culture trays with egg water, containing 60 mg/L sea salt (Instant Ocean) and 0.25 mg/L methylene blue in deionized water. Zebrafish embryos and larvae were randomly assigned to different experimental groups prior to experimental manipulation. The sex of embryos and larvae cannot be determined at such early stages because zebrafish use elusive polygenic factors for sex determination, and both males and females have juvenile ovaries between 2.5 and 4 weeks of development. Liew et al., Brief Funct Genomics 13(2), 172-187 (2014). Zebrafish larvae were imaged at 5 dpf when they are approximately 4 mm long, display a range of locomotor behaviors and consume nutrients available in the yolk sac. Clift et al., Zebrafish 11(5), 455-461 (2014).\nPharmacological treatments. Zebrafish embryos and larvae were treated with 10 μM CsA (cyclosporin A, Enzo Life Sciences), 1 μM FK506 (tacrolimus, Enzo Life Sciences), 1 μM rapamycin (Santa Cruz Biotechnology), 5 μM proINDY (Tocris Bioscience) or co-treatments of either 10 μM CsA+5 μM proINDY or 1 μM FK506+5 μM proINDY. […] Clift et al., Behav Brain Res, 282, 117-124 (2015). […] Robinson et al., J Appl Toxicol 37(12), 1438-1447 (2017). […] All administered compounds were diluted in egg water from 1000× stocks dissolved in dimethyl sulfoxide (DMSO). The corresponding DMSO concentration (1 μl DMSO/ml egg water) was used as a vehicle control. Embryos and larvae were treated during one of the following developmental stages: 2-3, 3-4, or 4-5 dpf. The embryos and larvae were treated in 10 cm Petri dishes for 24 hours, rinsed three times with egg water, and then transferred to new Petri dishes with egg water. Larvae that were treated from 4-5 dpf were rinsed and kept in egg water for 3 hours prior to imaging, typically from 10 am to 1 pm. All treatment groups were imaged at 5 dpf in egg water. For imaging, larvae were transferred to white 96-well ProxiPlates (PerkinElmer, 6006290) and were imaged for 3 hours, typically from 1-4 pm (FIG. 12).\nImaging of zebrafish larvae. Zebrafish larvae were imaged in a 384-well imaging system as described previously. Thorn et al., Sci Rep 9, 13989 (2019). Briefly, four 96-well ProxiPlates were placed on a glass stage inside a temperature-controlled cabinet, set at 28.5° C. The upper shelf of the cabinet holds a high-resolution camera (18-megapixel Canon EOS Rebel T6 with an EF-S 55-250 mm f/4.0-5.6 IS zoom lens), connected to a continuous power supply (Canon ACK-E10 AC Adapter) and controlled by a laptop computer. Images are acquired using Canon's Remote Capture software (EOS Utility, version 3), which is included with the camera. Every 6 seconds, the camera acquires a high-resolution image of larvae in the microplates (FIG. 12). Two small speakers (OfficeTec USB Computer Speakers Compact 2.0 System) are located speaker-side down on the glass stage. Speakers were connected by USB to the laptop computer and set to maximum volume (85 dBA).\nBehavioral assay. Larval behaviors were imaged for 3 hours, as described previously. Thorn et al., Sci Rep 9, 13989 (2019). […] The PowerPoint started with a light background for 60 minutes without visual or acoustic stimuli, followed by 80 minutes with visual stimuli, 10 minutes without stimuli, and 30 minutes with acoustic stimuli (FIG. 12). Larvae were not exposed to visual stimuli and acoustic stimuli at the same time. The visual stimuli consisted of a series of lines that moved upwards or downwards in the microplates, in a horizontal plane. […]"}, "[4]": {"conditions": "5 μM proINDY, 5 dpf acute, vs DMSO"}, "[5]": {"conditions": "5 dpf acute exposure, vs DMSO, 10 μM CsA, 1 μM FK506, 1 μM rapamycin, proINDY"}}, "note": "“Also recorded” adds a separate entry of the source."}
{"smiles": "CCCCC1=NC2(CCCC2)C(=O)N1Cc1ccc(-c2ccccc2-c2nnn[nH]2)cc1", "note": "[Irbesartan]", "values": [{"measurement": "activity", "setting": "zebrafish larvae [1]", "value": "increased activity"}, {"measurement": "excitability (E) in response to acoustic stimuli at 1-second intervals", "setting": "zebrafish larvae [1]", "value": "did not increase excitability; also recorded: does not increase excitability"}, {"measurement": "optomotor response (OMR)", "setting": "zebrafish larvae [1]", "value": "decreased optomotor responses"}]}
{"smiles": "Brc1c(NC2=NCCN2)ccc2nccnc12", "note": "[UK 14,304]", "values": [{"measurement": "activity", "setting": "zebrafish larvae [1]", "value": "decrease in activity"}, {"measurement": "optomotor response (OMR)", "setting": "zebrafish larvae [1]", "value": "increase in optomotor responses"}]}
{"smiles": "CCN1/C(=C/C(C)=O)Sc2ccc(OC(C)=O)cc21", "note": "[proINDY, ProINDY]", "values": [{"measurement": "early activity (first hour of imaging)", "setting": "zebrafish larvae [2]; [4]", "value": "reduced early and late activity"}, {"measurement": "late activity (period 15)", "setting": "zebrafish larvae [2]; [4]", "value": "reduced early and late activity"}, {"measurement": "late activity (period 15)", "setting": "zebrafish larvae [2]; 10 μM proINDY, 5 dpf acute, vs DMSO", "value": "reduced late activity only"}, {"measurement": "optomotor response (OMR)", "setting": "zebrafish larvae [2]; 5 dpf acute exposure, vs DMSO", "value": "increased optomotor responses; also recorded: increase in the optomotor response"}, {"measurement": "early activity (first hour of imaging)", "setting": "zebrafish larvae [2]; [5]", "value": "decrease in early activity"}, {"measurement": "late activity (period 15)", "setting": "zebrafish larvae [2]; [5]", "value": "decreased activity"}, {"measurement": "activity", "setting": "zebrafish larvae [2]; 5 dpf acute exposure, vs DMSO, 10 μM CsA, 1 μM FK506, proINDY 5 or 10 μM", "value": "decreased activity; also recorded: decrease in activity"}, {"measurement": "optomotor response to fast red lines", "setting": "zebrafish larvae [2]; 5 dpf acute, lines 16x faster", "value": "increase in the optomotor response"}, {"measurement": "excitability (acoustic stimuli at 1-second intervals)", "setting": "zebrafish larvae [2]; 5 dpf acute, vs DMSO", "value": "increased excitability"}, {"measurement": "startle responses to acoustic stimuli at 20-second intervals", "setting": "zebrafish larvae [2]; 5 dpf acute, vs DMSO", "value": "slightly elevated"}, {"measurement": "optomotor response to red lines", "setting": "zebrafish larvae [2]; 5 dpf acute, vs DMSO, proINDY 5 μM", "value": "increased optomotor response"}, {"measurement": "larval survival", "setting": "[3]; developmental exposures to 10 μM proINDY", "value": "affected larval survival"}, {"measurement": "OMR RGB", "setting": "[3]; exposure 2-3 dpf", "value": "decrease in OMR RGB"}, {"measurement": "late activity (period 15)", "setting": "[3]; exposure 2-3 dpf", "value": "decreased activity"}, {"measurement": "startle responses (20-second interval)", "setting": "[3]; exposure 3-4 dpf", "value": "decrease startle responses"}, {"measurement": "OMR RGB", "setting": "[3]; exposure 4-5 dpf", "value": "decrease in OMR RGB"}, {"measurement": "late activity (period 15)", "setting": "[3]; exposure 4-5 dpf", "value": "increased activity"}]}
